According to US20080214521A1, “Sensitization of Drug-Resistant Lung Caners to Protein Kinase Inhibitors” (priority 2005, published 2008):

Assays:
[1] = test system: phosphorylation of protein kinase B/AKT and glycogen synthase kinase 3-beta; experiment: Immunoblotting of downstream targets of PKC signal transduction after PMA stimulation; assay type: cell-based; settings: drug-resistant and drug-sensitive cell lines; PKC412 1 to 10 μM for 2 hours, then PMA 1 μM 10 minutes
Description: Immunoblotting and cell fractionation was performed as described previously (38, 39) using primary antibodies against caspase-9 (Chemicon), caspase-3, BCL-XL, cytochrome c (BD Pharmingen), BAX, BAK, PARP (Upstate), AKT, phospho-AKT, GSK-3beta, phospho-GSK3beta (Cell Signaling), and actin (ICN).

[2] = phase I study, cited from earlier work
[3] = test system: NSCLC cell lines expressing BAK under the control of a tetracycline-regulated promoter; experiment: Apoptosis induced by PKC inhibitors with conditional BAK expression (DOX), sub-G1 / TMRE / caspase cleavage immunoblot; assay type: cell-based; settings: drug-resistant NSCLC cells (A549, NCI-H1299), 48 hours
Description: NSCLC cell lines known in the art were obtained. Unless otherwise specified, NSCLC cells were grown on tissue culture dishes (BD Falcon) in Dulbecco's Modified Eagle Medium supplemented with 10% fetal bovine serum, glucose, L-glutamine and penicillin/streptomycin in a humidified atmosphere at 5% CO2. NSCLC cells conditionally expressing transgenic BAK were obtained using the BD RevTet-On vector system (BD Clontech). A BamHI fragment encoding the full length human BAK cDNA was generated by PCR, confirmed by sequencing, and cloned into the pRevTRE vector. A retroviral BCL-XL expression vector has been described previously (26). Replication-defective retroviral virions were produced by standard calcium phosphate transfection in the FNX ampho packaging cell line (a gift from Dr G. P. Nolan, Stanford). Transductions were performed using filtered supernatants, and populations were selected with hygromycin B and puromycin in the absence of tetracycline, or were obtained by fluorescence activated cell sorting (Coulter) of EGFP-positive cells. […]
Cells with subdiploid DNA content (sub-G1) were quantified by flow cytometry after 48 hours. […] Cells that maintained Δψm (TMRE+) were quantified by TMRE-staining and flow cytometry after 48 hours. […] Whole cell extracts were obtained at 24 hours, and the cleavage of caspase-9, caspase-3 and the caspase substrate PARP was detected by immunoblotting.

[4] = test system: NCI-H1299 cells; experiment: Drug synergy analysis, PKC412 with etoposide (VP16), sub-G1 flow cytometry
[5] = test system: lung cancer xenograft; settings: mouse, in vivo; cited from earlier work
[6] = test system: NCI-H1299; experiment: Cell cycle distribution by flow cytometry; assay type: cell-based; settings: 50 μM PKC412, 24 hours
[7] = test system: cancer cell lines; settings: cited from earlier work
[8] = test system: NCI-H460 cells; experiment: Drug synergy analysis, PKC412 with etoposide (VP16), sub-G1 flow cytometry; assay type: cell-based; settings: simultaneous 25 μM etoposide and escalating PKC412 (0-100 μM), 48 hours
Description: (§1) All other drugs were purchased from Sigma.
(§2) After 48 hours, the fraction of cells with subdiploid DNA content (sub-G1) was quantified by flow cytometry. DMSO-treated cells (white bars) served as negative controls.

[9] = test system: A549 cells; experiment: as above; assay type: cell-based
Description: as §1, §2

[10] = test system: NSCLC cells expressing BAK under the control of a tetracycline-regulated promoter; experiment: Apoptosis facilitated by conditionally expressed transgenic BAK; assay type: cell-based; settings: BAK induced by DOX; data not shown
[11] = simultaneous 25 μM etoposide and escalating PKC412 (0-100 μM), 48 hours

Row | Compound | phosphorylation of downstream targets of PKC signal transduction (AKT, GSK-3beta) [1] | safety of combination with CDDP/gemcitabine ([2]; patients with advanced NSCLC, with standard cytotoxic regimen of CDDP/gemcitabine) | safety and feasibility of oral administration ([2]; patients with advanced cancers, oral) | sensitisation to PKC412-mediated apoptosis by inducible expression of BAK [3] | apoptosis induced by VP16 given subsequently to PKC412 ([4]; 50 μM PKC412 24 hours, then 25 μM etoposide another 24 hours) | effect of PKC412 on VP16-induced apoptosis [4, 11] | effects in murine xenograft model of lung cancer [5] | cell cycle distribution after pre-treatment with PKC412 [6] | effect on cancer cell lines [7] | apoptosis with PKC412 plus VP16 compared to VP16 alone [8] | apoptosis after PKC412 pre-treatment versus VP16 pre-treatment ([9]; 50 μM PKC412 and 25 μM etoposide, sequential, 24 hours each) | cytotoxicity of combined treatment with PKC412 and VP16 [9, 11] | effect on apoptosis facilitated by transgenic BAK [10]
1 | CO[C@@H]1[C@H](N(C)C(=O)c2ccccc2)C[C@H]2O[C@]1(C)n1c3ccccc3c3c4c(c5c6ccccc6n2c5c31)C(=O)NC4 [PKC412, N-[(9S,10R,11R,13R)-2,3,10,11,12,13-hexahydro-10-methoxy-9-methyl-1-oxo-9,13-epoxy-1H,9H-diindolo[1,2,3-gh:3′,2′,1′-Im]pyrrolo[3,4j][1,7]benzodiazonin-11-yl]-N-methylbenzamide] | effectively reduced | established | safe and feasible | Sensitized | reduced the amount of apoptosis | protected NCI-H1299 cells against VP16-induced apoptosis | antitumoral and antiangiogenic effects | cell cycle arrest in the G2/M-phase | induced cell cycle arrest or apoptosis | no further increase in apoptosis | did not significantly differ | additive cytotoxicity | 
2 | CN[C@@H]1C[C@H]2O[C@@](C)([C@@H]1OC)n1c3ccccc3c3c4c(c5c6ccccc6n2c5c31)C(=O)NC4 [staurosporine] |  |  |  |  |  |  | antitumoral and antiangiogenic effects |  | induced cell cycle arrest or apoptosis |  |  |  | 
3 | zVAD-fmk |  |  |  |  |  |  |  |  |  |  |  |  | inhibited
